Results from patent US20130158264A1, “Polymorphs of OSI-906” (priority 2010, published 2013).
“Also recorded” adds a separate entry of the source.

Columns and labels:
Type in all cases: physicochemical
[1] = Additional experiments to isolate OSI-906 solid forms (desiccant storage, exposure to lab humidity)
Experimental: Form C was confirmed to be a monohydrate of OSI-906 by gravimetric moisture sorption analysis. The solid form adsorbed approximately 4.2 wt % water at 30% RH which is consistent with the theoretical water content (4.1 wt %) of a monohydrate of OSI-906 (See FIG. 47). Upon desorption, hysteresis was observed between 25% RH and 5% RH. […] Based on these findings, an additional experiment was conducted in an effort to isolate this new crystalline form. An XRPD substrate containing Form C was placed in a desiccator at room temperature. After overnight storage, the slide was analyzed immediately by XRPD upon removal from the environment and brief exposure (<10 min) to the lab humidity (40-50% RH).

[2] = Slurry experiments (form conversion by XRPD)
Experimental: Slurry Experiments: Approximately 20-50 mg of select crystalline forms were weighed to individual 8 mL vials equipped with a magnetic stir bar. Either THF, water, EtOH, (80:20) EtOH:Water or IPA was added to obtain a free flowing slurry. After 3, 5, 7 and 11 days of equilibration at 50° C. or ambient temperature, solid from each slurry was recovered by centrifuge filtration through 0.45 μm nylon filters. The isolated solids were analyzed by XRPD to check for form conversion. […] (Table 22).

[3] = Gravimetric moisture sorption; settings: for water adsorbed: 25° C.; for XRPD form of the dried solid following moisture sorption analysis: dried at 60° C./0% RH after the experiment; for stability upon desorption (loss of water): humidity reduced below 15%
Experimental: Gravimetric Moisture Sorption: Gravimetric moisture sorption experiments were carried out on selected materials by first drying the sample at 40% RH and 25° C. until an equilibrium weight was reached or for a maximum of four hours. The sample was then subjected to an isothermal (25° C.) adsorption scan from 40 to 90% RH in steps of 10%. The sample was allowed to equilibrate to an asymptotic weight at each point for a maximum of four hours. Following adsorption, a desorption scan from 85 to 0% RH (at 25° C.) was run in steps of −10% again allowing a maximum of four hours for equilibration to an asymptotic weight. An adsorption scan was then performed from 0% RH to 40% RH in steps of +10% RH. The sample was then dried for 1-2 hours at 60° C. and the resulting solid analyzed by XRPD.

[4] = DSC isothermal hold at 105° C. followed by XRPD; settings: held at 105° C. for five minutes
Experimental: Differential Scanning Calorimetry Analysis:
Differential scanning calorimetry (DSC) analyses were carried out on the samples “as is”. Samples were weighed in an aluminum pan, covered with a pierced lid, and then crimped. Analysis conditions were 30-105, 30-300, 30-350° C. at 10° C./min. In addition, isothermal holds were performed for a duration of five minutes at 105° C. and 200° C.
(See FIG. 49). In an effort to elucidate the additional thermal events, additional DSC experiments were conducted. Form C was held at 105° C. for five minutes, cooled to room temperature and then reheated to the same temperature. […] The isothermal hold experiment was repeated and the sample then exposed to the lab environment (˜40-50% RH) overnight. […] These observations are consistent with the results previously presented following storage of Form C under desiccant conditions.

[5] = Thermal stress experiments (Forms B, D, E, and F) in vacuum oven
Experimental: Thermal Stress Experiments (Forms B, D, E, and F)
Solids were stressed under different temperature (40° C. or 80° C.) in a vacuum oven for a measured time period.

[6] = Solid-state stability under storage conditions (XRPD)
Experimental: Solid-State Stability: Approximately 50 mg of Form A or Forms C+D were weighed to individual 8 mL vials and placed uncapped in the following storage conditions: 40° C. under vacuum, 80° C. under vacuum, desiccant, 25° C./60% RH and 40° C./75% RH. […] (Table 21). To assess the stability of Form A, the solid form was stored at different environmental conditions as described herein. Approximately 50 mg of Form A was weighed to 8 mL vials and placed uncapped in the following storage conditions: 40° C. under vacuum, 80° C. under vacuum, desiccant, 25° C./60% RH and 40° C./75% RH. After 24 hours and seven days of equilibration the solids were analyzed by XRPD. (See Table 21).

[7] = (80:20) EtOH:Water, prolonged equilibration at ambient and elevated temperature
[8] = water, prolonged equilibration at ambient and elevated temperature

form stability in slurry [2, 7] | form stability in slurry ([2]; EtOH, ambient temperature) | form stability in slurry ([2]; EtOH, elevated temperature) | form stability in slurry ([2]; IPA) | form stability in slurry ([2]; THF) | form stability in slurry [2, 8] | XRPD form of the dried solid following moisture sorption analysis [3] | stability upon desorption (loss of water) [3] | XRPD Result after thermal stress ([5]; 40° C., 3 d) | water adsorbed ([3]; 60% RH) | Compound | also measured
 |  |  |  |  |  |  |  |  |  | CC1(O)CC(c2nc(-c3ccc4ccc(-c5ccccc5)nc4c3)c3c(N)nccn23)C1 (stereo not drawn) [Form I, cis-3-[8-amino-1-(2-phenyl-quinolin-7-yl)-imidazo[1,5-a]pyrazin-3-yl]-1-methylcyclobutanol] | XRPD form after exposure to lab humidity ([1]; 1 hour, lab humidity 40-50% RH): conversion to Form C
 |  |  |  |  |  |  |  | Form C |  | CC1(O)CC(c2nc(-c3ccc4ccc(-c5ccccc5)nc4c3)c3c(N)nccn23)C1 (stereo not drawn) [Form F, cis-3-[8-amino-1-(2-phenyl-quinolin-7-yl)-imidazo[1,5-a]pyrazin-3-yl]-1-methylcyclobutanol] | XRPD Result after thermal stress ([5]; 80° C., overnight): Form C
conversion to Form C | Form C | converting to either Form A or E | conversion to Form A | conversion to Form A | stable | mixture of Forms C and D | not stable | Form C | approximately 3.9 wt % | CC1(O)CC(c2nc(-c3ccc4ccc(-c5ccccc5)nc4c3)c3c(N)nccn23)C1 (stereo not drawn) [Form D, cis-3-[8-amino-1-(2-phenyl-quinolin-7-yl)-imidazo[1,5-a]pyrazin-3-yl]-1-methylcyclobutanol] | solid-state stability (summary in words) ([6]; one and seven days at 25° C./60% RH, 40° C./75% RH and under desiccant conditions): exhibited stability; solid-state stability (summary in words) ([6]; one and seven days at elevated temperature drying conditions (40° C. or 80° C. under vacuum)): conversion to Form C
 |  |  |  |  |  | consistent with the initial form |  |  | 0.2 wt % | CC1(O)CC(c2nc(-c3ccc4ccc(-c5ccccc5)nc4c3)c3c(N)nccn23)C1 (stereo not drawn) [Form A, cis-3-[8-amino-1-(2-phenyl-quinolin-7-yl)-imidazo[1,5-a]pyrazin-3-yl]-1-methylcyclobutanol] | hygroscopicity by gravimetric moisture sorption analysis [3]: non-hygroscopic; water adsorbed ([3]; 90% RH): 0.3 wt %

Compound | form stability in slurry [2, 7] | form stability in slurry ([2]; EtOH, ambient temperature) | form stability in slurry ([2]; EtOH, elevated temperature) | form stability in slurry ([2]; IPA) | form stability in slurry ([2]; THF) | form stability in slurry [2, 8] | XRPD form of the dried solid following moisture sorption analysis [3] | stability upon desorption (loss of water) [3] | XRPD Result after thermal stress ([5]; 40° C., 3 d) | water adsorbed ([3]; 60% RH) | also measured
CC1(O)CC(c2nc(-c3ccc4ccc(-c5ccccc5)nc4c3)c3c(N)nccn23)C1 (stereo not drawn) [Form C, cis-3-[8-amino-1-(2-phenyl-quinolin-7-yl)-imidazo[1,5-a]pyrazin-3-yl]-1-methylcyclobutanol] | stable | exhibiting stability | conversion to Forms A or E | conversion to Form A | conversion to Form A | stable | mixture of Form C and an unidentified crystalline form; also recorded: mixture of Forms C+I | not stable |  |  | XRPD form after desiccant storage ([1]; overnight in a desiccator at room temperature): Form I; XRPD form after slurry ([2]; THF, room temperature, 11 day): Form A; water adsorbed ([3]; 30% RH): approximately 4.2 wt %; XRPD form after DSC isothermal hold [4]: indicative of Form C
